Data on one compound can be found in article PMC8945229, “Development and Biological Characterization of a Novel Selective TrkA Agonist with Neuroprotective Properties against Amyloid Toxicity” (Biomedicines, 2022).

SMILES strings stand for the structures.

The experiment concerns the target T1, TrkC (Homo sapiens, UniProt Q16288).
T1 construct: expressed in transfected cells
Kind of experiment: TrkC phosphorylation in NIH-3T3 cells stably transfected with TrkC. Format: cell-based. The conditions noted are these: 500 nM, 30′. The protocol:
For immunoprecipitation experiments PC12 or HEK293T, cells were used when at 70–80% confluent. Cells were starved of serum for 4 h and subsequently treated with 100 ng/mL NGF or 500 nM of compound ENT-A013 for 30′. Cells were then lysed in Pierce™ IP Lysis Buffer (87788, Thermo Fischer Scientific, Waltham, MA, USA) containing proteases (539138, Calbiochem, Darmstadt, Germany) and phosphatase inhibitors (524629, Calbiochem, Darmstadt, Germany). Lysates were then immunoprecipitated overnight at 4 °C with TrkA antibody (1:100, 06-574, Sigma-Aldrich, St. Louis, MO, USA) (Table S1) or p75^NTR antibody (1:100, ab6172, Abcam plc., Cambridge, UK) followed by 4 h incubation with protein G-plus agarose beads (sc-2002, Santa Cruz Biotechnology, Inc., Dallas, TX, USA). Beads were then collected, washed 3X with lysis buffer, resuspended in SDS loading buffer and subjected to Western blot against phosphorylated Tyrosine (1:1000, BAM1676, R&D Systems, Inc., Minneapolis, MN, USA) or Traf6 antibody (1:2000, ab33915, Abcam, plc., Cambridge, UK). […]
phosphorylated any of those. […] Quantification (E) […]
Supplementary Figure S3: Primary DRG neurons were cultured in the presence of ENT-A013 (500nM, supplemented every 48hrs) and a neutralizing antibody against NGF for 5 days and then neurite length was measured by immunostaining against Tuj1 . […]

T1 sequence (Q16288 32-839, species assumed): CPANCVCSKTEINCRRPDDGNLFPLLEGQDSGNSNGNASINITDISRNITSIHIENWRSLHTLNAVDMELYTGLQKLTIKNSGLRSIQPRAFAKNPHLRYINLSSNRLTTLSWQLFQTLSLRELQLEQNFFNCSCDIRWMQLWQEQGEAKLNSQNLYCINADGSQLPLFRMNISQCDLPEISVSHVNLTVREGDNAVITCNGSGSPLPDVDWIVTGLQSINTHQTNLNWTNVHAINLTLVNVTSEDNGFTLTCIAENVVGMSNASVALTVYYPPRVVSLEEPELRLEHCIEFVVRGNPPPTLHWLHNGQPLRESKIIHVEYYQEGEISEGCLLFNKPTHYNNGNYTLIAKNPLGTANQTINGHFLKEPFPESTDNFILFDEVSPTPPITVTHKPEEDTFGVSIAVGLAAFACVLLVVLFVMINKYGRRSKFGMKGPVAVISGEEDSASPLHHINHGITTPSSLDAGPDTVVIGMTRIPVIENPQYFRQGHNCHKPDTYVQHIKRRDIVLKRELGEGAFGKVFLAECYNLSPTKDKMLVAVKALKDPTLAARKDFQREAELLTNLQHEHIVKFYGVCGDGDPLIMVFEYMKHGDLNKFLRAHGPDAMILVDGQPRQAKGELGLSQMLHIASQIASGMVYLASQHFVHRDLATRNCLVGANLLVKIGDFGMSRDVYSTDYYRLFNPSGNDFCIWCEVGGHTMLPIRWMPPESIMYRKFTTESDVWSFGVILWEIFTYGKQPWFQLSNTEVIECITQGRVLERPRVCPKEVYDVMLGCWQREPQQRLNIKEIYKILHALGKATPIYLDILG

In the case of `CC12CCC(O)CC1=CCC1C2CCC2(C)C1CCC21CC1C=CBr` [ENT-A013, (2′R,3S,17S)-2′-(2-Bromovinyl)-5-Androstene-17,1′-Cyclopropan-3-ol], the “TrkC phosphorylation (in words)” value is given as “did not induce phosphorylation”.
